From ChEMBL document CHEMBL1201862, “PubChem BioAssay data set” (2004)
Active and inactive are the calls of the source.

Columns and labels:
[1] = biological target: T1, Heat shock factor protein 1 (Mus musculus, UniProt P38532); assay: enhancement of HSF1-driven luciferase signal – cell-based, NIH3T3, luminescence, dose retest, confirmation (AID 435004); format: functional;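 also: stress induced by proteasome inhibitor MG132 added 30 min after compound; luciferase reporter driven by HSF1 response element in NIH3T3 cells; actives raise luminescence as potentiators of the MG132 stress response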
T1 sequence (P38532 whole entry): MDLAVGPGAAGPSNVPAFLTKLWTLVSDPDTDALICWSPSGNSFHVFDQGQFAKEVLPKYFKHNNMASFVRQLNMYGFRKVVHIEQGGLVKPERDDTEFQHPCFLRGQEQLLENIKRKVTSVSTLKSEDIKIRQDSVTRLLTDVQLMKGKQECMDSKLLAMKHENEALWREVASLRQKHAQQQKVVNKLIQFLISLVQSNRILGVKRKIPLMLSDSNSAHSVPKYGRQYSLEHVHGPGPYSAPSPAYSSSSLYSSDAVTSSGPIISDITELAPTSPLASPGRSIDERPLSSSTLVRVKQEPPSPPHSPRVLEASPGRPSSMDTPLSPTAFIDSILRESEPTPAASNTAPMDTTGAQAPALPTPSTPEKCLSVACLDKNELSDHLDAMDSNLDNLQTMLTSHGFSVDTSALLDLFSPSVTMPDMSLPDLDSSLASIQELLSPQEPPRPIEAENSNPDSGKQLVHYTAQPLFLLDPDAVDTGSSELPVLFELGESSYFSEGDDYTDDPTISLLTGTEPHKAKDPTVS

[2] = biological target: T2, Replicative DNA helicase DnaB (Mycobacterium tuberculosis, UniProt P9WMR3); assay: DnaB intein splicing inhibitors, dose response, biochemical, cell-free fluorescence (AID 449749); format: functional
T2 sequence (P9WMR3 whole entry): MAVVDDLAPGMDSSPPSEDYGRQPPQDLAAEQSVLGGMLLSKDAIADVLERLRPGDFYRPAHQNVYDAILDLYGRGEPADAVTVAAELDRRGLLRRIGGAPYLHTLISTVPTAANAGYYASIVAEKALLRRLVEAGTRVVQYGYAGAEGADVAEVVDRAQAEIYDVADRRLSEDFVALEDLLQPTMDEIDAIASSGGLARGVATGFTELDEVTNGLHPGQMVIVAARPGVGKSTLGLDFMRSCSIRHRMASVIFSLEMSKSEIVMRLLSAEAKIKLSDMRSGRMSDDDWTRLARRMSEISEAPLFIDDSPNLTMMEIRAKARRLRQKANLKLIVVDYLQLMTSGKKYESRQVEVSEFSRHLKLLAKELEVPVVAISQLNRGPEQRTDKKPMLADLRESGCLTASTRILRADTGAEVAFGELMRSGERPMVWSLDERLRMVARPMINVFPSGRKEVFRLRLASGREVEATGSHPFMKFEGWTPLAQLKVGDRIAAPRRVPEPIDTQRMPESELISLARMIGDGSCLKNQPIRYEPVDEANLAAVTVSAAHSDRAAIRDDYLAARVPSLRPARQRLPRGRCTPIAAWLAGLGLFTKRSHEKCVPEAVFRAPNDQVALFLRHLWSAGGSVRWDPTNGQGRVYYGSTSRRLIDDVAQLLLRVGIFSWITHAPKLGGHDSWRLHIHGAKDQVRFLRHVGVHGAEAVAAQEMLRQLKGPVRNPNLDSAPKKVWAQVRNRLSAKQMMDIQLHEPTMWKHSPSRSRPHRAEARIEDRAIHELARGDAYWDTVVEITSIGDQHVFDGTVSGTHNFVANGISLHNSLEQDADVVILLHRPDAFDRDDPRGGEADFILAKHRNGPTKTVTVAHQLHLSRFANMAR

[3] = A549 cell cytotoxicity, dose response, cytotoxicity control, plate reader, cherry-pick, antagonist series (AID 743412); format: functional, cell-based
[4] = viability loss in HEK293 cells – cell-based, plate reader, cherry-picked samples, cytotoxicity control, dose response (AID 743446); format: functional
[5] = blockers of bursicon-stimulated LGR2 cAMP reporter – cell-based, HEK293, CRE-luciferase reporter, cherry pick, set 2, dose response (AID 743343); format: functional;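 also: transfected cells were stimulated with diluted bursicon conditioned medium after compound addition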
[6] = biological target: T3, Protein RecA (Mycobacterium tuberculosis, UniProt P9WHJ3); assay: Fluorescence Cell-Free Homogeneous Dose Retest to Identify Inhibitors of RecA-Intein Splicing Activity. [Related pubchem assays (depositor defined):AID2097, AID2223, AID489010, AID492950]; format: functional
T3 sequence (P9WHJ3 whole entry): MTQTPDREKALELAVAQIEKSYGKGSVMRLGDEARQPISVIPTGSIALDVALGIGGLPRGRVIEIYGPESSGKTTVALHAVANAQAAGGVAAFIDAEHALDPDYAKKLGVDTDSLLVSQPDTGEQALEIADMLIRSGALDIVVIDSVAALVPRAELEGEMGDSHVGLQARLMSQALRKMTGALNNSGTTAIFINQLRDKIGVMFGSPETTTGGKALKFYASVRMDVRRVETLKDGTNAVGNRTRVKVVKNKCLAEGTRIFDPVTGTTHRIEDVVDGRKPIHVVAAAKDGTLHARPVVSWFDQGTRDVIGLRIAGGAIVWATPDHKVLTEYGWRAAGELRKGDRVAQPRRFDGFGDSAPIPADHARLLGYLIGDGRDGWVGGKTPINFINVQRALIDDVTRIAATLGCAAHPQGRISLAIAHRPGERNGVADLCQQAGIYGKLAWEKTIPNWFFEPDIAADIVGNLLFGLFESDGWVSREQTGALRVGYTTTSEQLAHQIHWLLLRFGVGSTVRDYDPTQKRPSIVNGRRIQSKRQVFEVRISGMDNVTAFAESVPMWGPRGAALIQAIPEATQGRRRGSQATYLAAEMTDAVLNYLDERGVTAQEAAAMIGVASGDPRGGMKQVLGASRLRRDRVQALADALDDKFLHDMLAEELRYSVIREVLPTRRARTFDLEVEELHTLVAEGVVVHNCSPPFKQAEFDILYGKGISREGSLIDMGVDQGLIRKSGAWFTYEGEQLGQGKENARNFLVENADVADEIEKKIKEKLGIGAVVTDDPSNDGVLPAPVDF

[7] = toxicity toward HepG2 liver cells – cell-based, plate reader, cherry-pick, antagonist series, cytotoxicity control, dose response (AID 743416); format: functional
[8] = HEK-293T viability loss after treatment – luminescence, T-cell screen hits, cytotoxicity control for TCR NF-kB inhibitor project, dose response (AID 489026); format: functional, cell-based;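 also: cells exposed to compound about 14 hours before the viability readout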
[9] = biological target: Paired box protein Pax-8 (Homo sapiens, UniProt Q06710); assay: PAX8 transcriptional activity inhibition in RMG-I – RMG-I cells, luciferase, cherry-pick, dose response (AID 687027); format: functional, cell-based;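 also: luciferase reporter driven by Pax8 target thyroperoxidase promoter measured by SteadyGlo luminescence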
[10] = biological target: T4, Polyadenylate-binding protein 1 (Homo sapiens, UniProt P11940); assay: MLLE domain peptide-binding blockers, IC50 – biochemical, fluorescence polarization, FITC-PAM2 peptide, dose response (AID 602259); format: functional; details: read-out: IC50_Mean
[11] = biological target: T4, Polyadenylate-binding protein 1; assay: MLLE binding blockers, Cy5 peptide tracer – biochemical, fluorescence polarization, Cy5-PAM2 peptide, secondary, miRNA deadenylation inhibitor project, dose response (AID 602260); format: functional; details: read-out: IC50_Mean
[12] = biological target: Heat shock protein HSP 90-alpha (Homo sapiens, UniProt P07900); format: functional, organism-based
[13] = biological target: Cytochrome P450 3A4 (Homo sapiens, UniProt P08684); details: Potency;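 also: confirmatory qHTS run detecting inhibitors and substrates of CYP3A4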
[14] = biological target: Large T antigen (Simian virus 40, UniProt P03070); format: functional, Betapolyomavirus macacae;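 also: Confirmatory-stage PubChem screen for compounds that inhibit SV40 T antigen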
[15] = biological target: T1, Heat shock factor protein 1; assay: decrease of HSF1-responsive luciferase luminescence – cell-based, NIH3T3, dose retest, confirmation (AID 2382); format: functional;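 also: NIH3T3 fibroblasts with HSF1-driven luciferase reporter stressed by proteasome inhibitor MG132; luminescence from HSF1-driven luciferase expression after 8 hours of MG132 stress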
[16] = Luminescence Cell-Based Dose Response HTS to Identify Activators of Luciferase Translation or Activity in H4 […] Cells. [Related pubchem assays: 1829 (Project Summary), 1814 (Primary HTS)]; format: functional
[17] = Luminescence Cell-Based Dose Confirmation HTS to Identify Activators of 5'UTR Stem-Loop Driven Alpha-Synuclein mRNA Translation in H4 Neuroglioblastoma Cells. [Related pubchem assays: 1829 (Project Summary), 1814 (Primary HTS)]; format: functional
[18] = test system: H4; assay: Luminescence Cell-Based Dose Response HTS to Identify Activators of 5'UTR Stem-Loop Driven Prion Protein mRNA Translation in H4 Neuroglioblastoma Cells. [Related pubchem assays: 1829 (Project Summary), 1814 (Primary HTS)]; format: functional; details: Homo sapiens
[19] = Luminescence Cell-Based Dose Retest to Confirm Inhibitors of Cancer Stem Cells. [Related pubchem assays (depositor defined):AID2717, AID2721]; format: functional; details: Homo sapiens
[20] = Luminescence Cell-Based Dose Response HTS to Identify Inhibitors of 5'UTR Stem-Loop Driven Prion Protein mRNA Translation in H4 Neuroglioblastoma Cells. [Related pubchem assays: 1827 (Project Summary), 1813 (Primary HTS)]; format: functional
[21] = alpha-synuclein stem-loop luciferase translation blockers – H4 neuroglioma cells, luminescence, confirmation (AID 1988); format: functional, cell-based
[22] = luciferase reporter signal suppression in cells – H4 neuroglioma cells, luminescence, dose response (AID 1990); format: functional, cell-based

Sequence of Cytochrome P450 3A4 (P08684 whole entry): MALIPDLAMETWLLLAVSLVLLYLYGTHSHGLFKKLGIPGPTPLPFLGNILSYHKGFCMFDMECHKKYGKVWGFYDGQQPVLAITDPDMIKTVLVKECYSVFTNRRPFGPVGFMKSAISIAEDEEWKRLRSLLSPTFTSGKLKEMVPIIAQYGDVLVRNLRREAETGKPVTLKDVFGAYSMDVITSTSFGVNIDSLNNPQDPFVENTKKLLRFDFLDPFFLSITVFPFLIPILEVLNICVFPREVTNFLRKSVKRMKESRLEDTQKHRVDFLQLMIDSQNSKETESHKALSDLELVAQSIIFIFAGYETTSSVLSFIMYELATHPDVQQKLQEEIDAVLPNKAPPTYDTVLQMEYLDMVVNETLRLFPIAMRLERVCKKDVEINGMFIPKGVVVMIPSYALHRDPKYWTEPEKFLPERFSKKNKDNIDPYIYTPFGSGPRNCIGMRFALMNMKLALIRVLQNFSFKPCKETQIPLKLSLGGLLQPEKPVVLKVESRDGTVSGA
T4 sequence (P11940 whole entry, the tested form may be a part): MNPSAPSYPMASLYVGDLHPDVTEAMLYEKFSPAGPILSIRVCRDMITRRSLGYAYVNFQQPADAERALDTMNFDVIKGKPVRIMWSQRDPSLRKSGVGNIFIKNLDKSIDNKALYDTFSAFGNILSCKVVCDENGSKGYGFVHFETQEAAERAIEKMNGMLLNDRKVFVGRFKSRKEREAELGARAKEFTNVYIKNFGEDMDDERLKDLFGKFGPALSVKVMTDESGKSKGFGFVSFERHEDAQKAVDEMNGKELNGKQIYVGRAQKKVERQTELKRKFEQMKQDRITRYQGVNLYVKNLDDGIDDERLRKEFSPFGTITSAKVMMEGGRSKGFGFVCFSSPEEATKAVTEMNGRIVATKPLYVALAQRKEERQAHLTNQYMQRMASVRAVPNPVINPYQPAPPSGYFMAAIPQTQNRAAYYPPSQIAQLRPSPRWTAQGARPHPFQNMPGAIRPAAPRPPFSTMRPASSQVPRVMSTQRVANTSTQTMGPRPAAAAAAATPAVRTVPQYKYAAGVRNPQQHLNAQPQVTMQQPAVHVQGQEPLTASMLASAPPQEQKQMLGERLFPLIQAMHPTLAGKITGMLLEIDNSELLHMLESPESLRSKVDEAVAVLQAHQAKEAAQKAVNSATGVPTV
Sequence of Large T antigen (P03070 whole entry): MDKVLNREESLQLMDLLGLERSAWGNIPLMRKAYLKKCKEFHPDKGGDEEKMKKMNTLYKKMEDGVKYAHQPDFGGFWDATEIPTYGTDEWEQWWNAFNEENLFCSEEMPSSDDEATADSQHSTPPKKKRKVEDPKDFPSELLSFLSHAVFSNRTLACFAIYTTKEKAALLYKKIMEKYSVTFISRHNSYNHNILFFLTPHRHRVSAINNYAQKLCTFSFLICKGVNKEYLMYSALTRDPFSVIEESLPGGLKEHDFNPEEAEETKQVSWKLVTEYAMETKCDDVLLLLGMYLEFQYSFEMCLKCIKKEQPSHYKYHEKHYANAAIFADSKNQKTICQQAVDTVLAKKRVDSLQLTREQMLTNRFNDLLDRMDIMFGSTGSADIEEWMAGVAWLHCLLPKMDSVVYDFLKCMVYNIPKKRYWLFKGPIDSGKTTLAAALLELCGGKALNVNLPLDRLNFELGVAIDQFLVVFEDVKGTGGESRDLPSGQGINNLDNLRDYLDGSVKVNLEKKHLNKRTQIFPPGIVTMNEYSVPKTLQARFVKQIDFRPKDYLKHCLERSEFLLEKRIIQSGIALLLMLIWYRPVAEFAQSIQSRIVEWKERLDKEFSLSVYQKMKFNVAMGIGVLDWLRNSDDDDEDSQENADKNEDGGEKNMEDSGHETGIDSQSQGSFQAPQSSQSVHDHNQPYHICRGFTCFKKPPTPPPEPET
Sequence of Paired box protein Pax-8 (Q06710 whole entry, the tested form may be a part): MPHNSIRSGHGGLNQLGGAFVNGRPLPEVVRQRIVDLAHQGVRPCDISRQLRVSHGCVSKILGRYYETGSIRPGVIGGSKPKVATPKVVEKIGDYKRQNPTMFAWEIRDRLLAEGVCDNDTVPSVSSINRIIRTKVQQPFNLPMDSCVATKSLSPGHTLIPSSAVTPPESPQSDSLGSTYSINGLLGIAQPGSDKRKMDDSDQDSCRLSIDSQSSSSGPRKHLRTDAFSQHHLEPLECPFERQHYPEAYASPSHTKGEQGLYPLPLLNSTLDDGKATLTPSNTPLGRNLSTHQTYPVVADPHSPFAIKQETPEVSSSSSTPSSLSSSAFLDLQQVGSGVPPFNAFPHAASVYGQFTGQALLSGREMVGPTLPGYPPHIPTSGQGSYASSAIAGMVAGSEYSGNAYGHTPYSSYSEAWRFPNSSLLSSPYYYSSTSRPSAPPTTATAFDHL

In the case of `COc1ccc(-c2cc(C(F)(F)F)nc(S(=O)(=O)CCCC(=O)Nc3cccc(O)c3)n2)cc1OC`, the EC50 [1] is reported as 7.17 µM (active), the AC50 [2] is reported as 162 µM (active) and the AC50 [3] is reported as 24.2 µM (active). The AC50 [4] was 10.5 µM (active), the AC50 [5] was 11.8 µM (active) and the EC50 [6] was 11.3 µM (active). The AC50 [7] was 12.7 µM (active).

For `Cc1ccc(C(=O)c2cc([N+](=O)[O-])ccc2N2CCCCC2)c(C)c1`, the IC50 [8] was > 80 µM (inactive) and the AC50 [9] was 0.929 µM (active).

For `O=C(CNC(=O)C12CC3CC(CC(C3)C1)C2)NC1=NCCS1`, the IC50 [10] was > 66 µM (inactive) and the IC50 [11] was > 66 µM (inactive).

In the case of `Cc1ccc(-c2nc3cccnc3s2)cc1NS(=O)(=O)c1ccc2c(c1)OCCO2`, the AC50 [12] is reported as 2.9 µM (active).

For `CC1(C)C(=O)C2C[C@]3(O)C4=CC(=O)OC(c5ccoc5)[C@]4(C)CCC3[C@](C)(C2=O)C1CC(=O)O` (some centres not stated), the AC50 [13] was 25.1 µM (inconclusive).

In the case of `COc1ccc(N2CCN(C(=O)NC3CC(=O)N(c4ccc(OC)cc4)C3)CC2)cc1` (configuration not stated), the IC50 [14] is reported as 43.3 µM (active).

With `CCCCN1Cc2c(nc3cc(-c4ccco4)nn3c2O)C1=O` the IC50 [14] was 35.6 µM (active).

With `Cc1nc(NCc2ccco2)c2c(C)c(C)sc2n1` the IC50 [8] was > 80 µM (inactive), the EC50 [15] was 1.22 µM (active) and the EC50 [16] was 8.42 µM (active). For the same compound, the EC50 [17] was > 120 µM (not active), the EC50 [18] was > 120 µM (not active) and the AC50 [19] was 3.97 µM (active).

In the case of `CC(=O)N1CC=CC1(CC(C)C)C(=O)NCc1ccc(C)o1` (configuration not stated), the AC50 [13] is reported as 15.8 µM (inconclusive).

With `CC[n+]1c(/C=C(/C)SC)sc2ccccc21` the IC50 [10] was > 66 µM (inactive) and the IC50 [11] was > 66 µM (inactive).

For `COC(=O)[C@@]1(C)C=C[C@@H](Cc2ccccc2)N1C(C)=O`, the AC50 [13] was 31.6 µM (inconclusive).

With `COC(=O)Nc1ccc(S(=O)(=O)N2CCCc3ccccc32)cc1` the IC50 [8] was > 80 µM (inactive), the EC50 [20] was 7.32 µM (active) and the EC50 [21] was 0.37 µM (active). The AC50 [19] was 0.362 µM (active) and the EC50 [22] was 8.02 µM (active).

For `O=C(NC(=S)NCCC1=CCCCC1)c1ccccc1Br`, the IC50 [10] was > 66 µM (inactive) and the IC50 [11] was > 66 µM (inactive).
